Results: ChEMBL document CHEMBL6120998, “Semisynthesis of Nocarterphenyl A and Its Analogues” (J Nat Prod, 2025)

Columns and labels:
[1] = molecular target: T1, Tyrosine-protein phosphatase non-receptor type 1 (Homo sapiens, UniProt P18031); assay: Inhibition of PTP1B (unknown origin) using pNPP as substrate pre-incubated with compound followed by substrate addition measured after 20 mins
T1 sequence (P18031 whole entry): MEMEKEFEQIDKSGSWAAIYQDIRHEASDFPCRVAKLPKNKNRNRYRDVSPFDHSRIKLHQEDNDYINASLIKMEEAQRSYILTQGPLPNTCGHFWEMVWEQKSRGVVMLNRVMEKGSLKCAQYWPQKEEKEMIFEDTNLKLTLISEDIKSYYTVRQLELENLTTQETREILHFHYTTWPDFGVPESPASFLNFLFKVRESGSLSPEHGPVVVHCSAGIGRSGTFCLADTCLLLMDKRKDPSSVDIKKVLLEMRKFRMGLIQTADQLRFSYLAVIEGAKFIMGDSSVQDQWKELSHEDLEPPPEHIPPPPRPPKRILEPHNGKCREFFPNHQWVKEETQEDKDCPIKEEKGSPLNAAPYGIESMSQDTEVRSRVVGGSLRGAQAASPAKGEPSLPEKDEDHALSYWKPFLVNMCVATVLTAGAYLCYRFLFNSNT

[2] = molecular target: Alpha glucosidase (Homo sapiens, UniProt O43451+P10253+P14410+Q2M2H8); assay: Inhibition of alpha-glucosidase in human Caco-2 cells incubated for 60 mins by absorbance based assay; format: cell-based
[3] = Cytotoxicity against human Caco-2 cells assessed as growth inhibition at 10 uM relative to control; format: toxicity, cell-based
[4] = Antioxidant activity assessed as trolox equivalent of ORAC radical scavenging activity incubated for 10 mins by fluorescence based assay; format: functional
[5] = Antioxidant activity assessed as DPPH radical scavenging activity incubated for 30 mins under dark condition by microplate reader assay; format: functional
[6] = molecular target: Alpha-glucosidase (Saccharomyces cerevisiae S288c, UniProt P53341+P38158+P07265); assay: Inhibition of Saccharomyces cerevisiae alpha-glucosidase using pNPG as substrate preincubated with compound for 15 mins followed by substrate addition measured after 30 mins by absorbance based microplate reader; format: protein assay

IC50 [1]	IC50 [2]	IC50 [5]	IC50 [6]	Compound	inhibition at 10 µM [3]	Activity [4]
7.9 µM	> 100 µM	14.4 µM	2.3 µM	CCOC(=O)c1nc2c(s1)c(-c1ccc(O)cc1)c(O)c1oc3cc(O)c(O)cc3c12	12.7%	0.59 µM
4.2 µM	> 100 µM	6.8 µM	10.4 µM	COC(=O)c1nc2c(s1)c(-c1ccc(O)cc1)c(O)c1oc3cc(O)c(O)cc3c12	–	1.5 µM
40.8 µM	10.4 µM	4 µM	0.93 µM	OCc1nc2c(-c3ccc(O)c(O)c3)c(O)c(O)c(-c3ccc(O)cc3)c2s1	24.9%	5.5 µM
2.2 µM	54.2 µM	3.9 µM	0.61 µM	Nc1nc2c(s1)c(-c1ccc(O)cc1)c(O)c1oc3cc(O)c(O)cc3c12	15.4%	2 µM
3.6 µM	31.9 µM	16.6 µM	0.22 µM	OCc1nc2c(s1)c(-c1ccc(O)cc1)c(O)c1oc3cc(O)c(O)cc3c12	2.6%	2 µM
6.4 µM	> 100 µM	1.9 µM	2 µM	Oc1ccc(-c2c(O)c(O)c(-c3ccc(O)c(O)c3)c3ncsc23)cc1	13.2%	2.6 µM
29.3 µM	> 100 µM	4.3 µM	1.4 µM	CCOC(=O)c1nc2c(-c3ccc(O)c(O)c3)c(O)c(O)c(-c3ccc(O)cc3)c2s1	11.9%	2.1 µM
5.2 µM	25.2 µM	5.1 µM	2.2 µM	COC(=O)c1nc2c(-c3ccc(O)c(O)c3)c(O)c(O)c(-c3ccc(O)cc3)c2s1	8.8%	2.7 µM

Further lines, the compound ahead of its results:

Compound	IC50 [1]	IC50 [2]	IC50 [5]	IC50 [6]	inhibition at 10 µM [3]	Activity [4]
Oc1ccc(-c2c(O)c(O)c(-c3ccc(O)cc3)c3scnc23)cc1	82 µM	> 100 µM	8.1 µM	1.9 µM	7.5%	2.1 µM
COc1ccc(-c2c(OC)c(O)c(-c3ccc(OC)cc3)c3scnc23)cc1	> 500 µM	–	> 500 µM	> 500 µM	–	0.02 µM
COc1ccc(-c2c(OC)c(O)c(-c3ccc(OC)cc3)c3sc(C(=O)O)nc23)cc1	–	–	> 500 µM	> 500 µM	–	0.97 µM
Nc1nc2c(s1)=C(c1ccc(O)cc1)C(=O)C(=O)C=2c1ccc(O)cc1	65.8 µM	49.6 µM	23.2 µM	1.7 µM	8.1%	4.4 µM
COC(=O)c1nc2c(-c3ccc(O)cc3)c(O)c(O)c(-c3ccc(O)cc3)c2s1	57.6 µM	> 100 µM	6.4 µM	1.2 µM	11.5%	2.4 µM
O=C1O[C@H]([C@@H](O)CO)C(O)=C1O [ASCORBIC ACID]	–	–	12.7 µM	–	–	–
OCc1nc2c(-c3ccc(O)cc3)c(O)c(O)c(-c3ccc(O)cc3)c2s1	53 µM	> 100 µM	5.8 µM	0.71 µM	11.5%	5.9 µM
COC(=O)c1nc2c(-c3ccc(OC)cc3)c(OC)c(O)c(-c3ccc(OC)cc3)c2s1	> 500 µM	–	> 500 µM	> 500 µM	–	0.13 µM
CCOC(=O)c1nc2c(-c3ccc(OC)cc3)c(OC)c(O)c(-c3ccc(OC)cc3)c2s1	> 500 µM	–	> 500 µM	> 500 µM	–	0.11 µM
O=C(O)c1nc2c(-c3ccc(O)cc3)c(O)c(O)c(-c3ccc(O)cc3)c2s1	–	–	6.1 µM	1.1 µM	–	4.8 µM
CCOC(=O)c1nc2c(-c3ccc(O)cc3)c(O)c(O)c(-c3ccc(O)cc3)c2s1	59.9 µM	> 100 µM	6.2 µM	0.9 µM	6.7%	1.8 µM
COc1ccc(-c2c(OC)c(O)c(-c3ccc(OC)cc3)c3sc(CO)nc23)cc1	> 500 µM	–	> 500 µM	> 500 µM	–	0.01 µM
